Values quoted from earlier work in patent US11014971B2, “Peptibodies, compositions thereof, and methods of treating atrial fibrillation” (University of South Florida, priority 2016, dated 2021).

Columns and labels:
[1] = target: T1, IKACh (Homo sapiens, UniProt P48544+P48549)
T1 sequence (P48549 1-501): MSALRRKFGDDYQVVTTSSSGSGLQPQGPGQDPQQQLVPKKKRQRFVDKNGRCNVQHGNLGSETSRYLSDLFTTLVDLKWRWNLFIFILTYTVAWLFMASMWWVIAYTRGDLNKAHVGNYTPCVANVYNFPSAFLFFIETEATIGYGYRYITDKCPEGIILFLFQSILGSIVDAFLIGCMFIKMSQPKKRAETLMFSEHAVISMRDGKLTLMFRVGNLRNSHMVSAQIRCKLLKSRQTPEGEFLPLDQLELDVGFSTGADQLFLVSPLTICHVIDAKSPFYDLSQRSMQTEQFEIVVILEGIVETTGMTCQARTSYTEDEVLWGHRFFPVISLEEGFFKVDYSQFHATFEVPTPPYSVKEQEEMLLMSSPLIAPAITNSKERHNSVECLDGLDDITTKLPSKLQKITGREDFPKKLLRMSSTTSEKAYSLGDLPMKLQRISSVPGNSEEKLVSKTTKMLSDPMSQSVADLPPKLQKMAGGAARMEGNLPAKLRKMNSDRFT
T1 sequence (P48544 1-419): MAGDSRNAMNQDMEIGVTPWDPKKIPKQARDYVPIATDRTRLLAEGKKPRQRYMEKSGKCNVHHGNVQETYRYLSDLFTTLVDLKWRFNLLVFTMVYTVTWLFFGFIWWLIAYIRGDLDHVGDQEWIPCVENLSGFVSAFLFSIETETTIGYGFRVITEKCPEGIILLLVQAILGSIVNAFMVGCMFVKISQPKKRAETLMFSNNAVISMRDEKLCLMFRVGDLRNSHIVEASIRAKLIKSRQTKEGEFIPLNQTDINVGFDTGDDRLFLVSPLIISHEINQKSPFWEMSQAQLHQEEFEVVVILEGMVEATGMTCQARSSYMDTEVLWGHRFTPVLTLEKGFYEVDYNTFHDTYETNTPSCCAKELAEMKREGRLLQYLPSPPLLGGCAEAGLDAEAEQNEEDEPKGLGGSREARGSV

[2] = tested on: paroxysmal AF and atrial flutter in patients
[3] = tested on: atrial action potential in a normal heart

Compound	Concentrations at which IKACh is selectively inhibited [1]	Reversion of atrial flutter in patients ([2]; atrial flutter)	Reversion of paroxysmal AF in patients ([2]; paroxysmal AF)	Effect on the action potential duration in normal atria [3]
Cc1cc(C(=O)N(C)[C@H](CN2CC(O)C2)C(C)C)ccc1F [AZD2927]	submicromolar	failed to revert		
Cc1cc(CO)nc2cc3c(cc12)OC(C)(C)[C@H](O)[C@H]3NCCc1ccccc1 [NTC-801]	submicromolar		failed to revert	
Tertiapin				minimal effects
